Experimental data taken from patent publication US4977172A, “Method of treating the symptoms of cognitive decline in an elderly patient employing (S)-3-ethyl-4-[(1-methyl-1H-imidazol-5-yl)-methyl]-2-oxazolidinone” (Warner-Lambert Company, priority 1989, dated 1990).

Tests used:
[1] = system: central muscarinic antagonist and agonist binding sites, rat cerebral cortex tissue; experiment: Receptor [3H]quinuclidinyl benzilate (RQNB) / [3H]cis-methyldioxalane (RCMD) binding, ratio of IC50 values; conditions: agonists ratio >=100, antagonists near 1, partial agonists between 1 and 100
Experimental: The biological activity of (S)-3-ethyl-4-[(1-methyl-1H-imidazol-5-yl)methyl]-2-oxazolidinone or a pharmaceutically acceptable salt thereof as an agent for the treatment of the symptoms of cognitive decline in an elderly patient including Alzheimer's disease was evaluated using a number of tests. The activity of the aforementioned compound or pharmaceutically acceptable salt thereof as a central muscarinic binding site agonist and antagonist was measured. Thus, in the Receptor [^3 H]Quinuclidinyl Benzilate Binding Assay (RQNB), described more fully by Watson, M., et al, Journal of Pharmacology and Experimental Therapeutics, 237, pages 411-418 (1986), rat cerebral cortex tissue is treated with radiolabeled quinuclidinyl benzilate, a known muscarinic binding site antagonist. The concentration of test compound required to inhibit 50% of the binding of this muscarinic antagonist is then determined. This procedure allows a determination of the affinity of the test compound for the central muscarinic antagonist site. […] The concentration of test compound required to inhibit 50% of the binding of this muscarinic agonist is then determined. […]

[2] = system: M1 receptors / M2 receptors; experiment: M1/M2 receptor binding: transformed cells possessing only M1 receptors and heart tissue (M2 receptors)
From the text: On the basis of molecular biology techniques, five subtypes of muscarinic receptors have been identified. For an agent useful in the treatment of cognitive decline in a patient, the relevant receptors are M1 since they are predominantly localized in brain areas associated with memory and learning (cortex and hippocampus). For comparison, M2 receptors are predominantly localized in peripheral tissues (e.g. the heart). […] The ratio of M1/M2 is shown in Table I. (S)-3-Ethyl-4-[(1-methyl-1H-imidazol-5-yl)methyl]-2-oxazolidinone is 3-fold selective for M1receptors over M2 receptors

[3] = system: rat; experiment: Increase in rate of stomach emptying (M1 active); assay type: in vivo; conditions: PO
From the text: (§1) Thus, the receptor binding selectivity of (S)-3-ethyl-4-[(1-methyl-1H-imidazol-5-yl)methyl]-2-oxazolidinone translates into pharmacologic specificity in the whole animal with M1 actions (stomach emptying) predominating over M2 actions (enhanced intestinal motility). […] Additionally, as shown in Table I in the central nervous system the compound increases neocortical arousal as measured by quantitative electroencephalography at doses below those required to increase local cortical blood flow in rats.

[4] = system: rat; experiment: Increase in smooth muscle motility of the intestines (M2 active); assay type: in vivo; conditions: PO
From the text: as §1

[5] = system: Male Long-Evans rats; experiment: Neocortical arousal by quantitative electroencephalography (QEEG); assay type: in vivo; conditions: rat, 10.0, 32.0 and 100.0 mg/kg tested
From the text: The methodology for determining neocortical arousal in rats by quantitative electroencephalography (QEEG) is as follows:
Male Long-Evans rats weighing 350 to 500 g were surgically implanted with stainless steel electrodes screwed into the skull surface overlying the frontal and occipital cortex. Electrodes were secured to a plastic connector (Plastic Products Model MS-363) which was permanently attached to the skull surface with dental acrylic. Animals were given one week to recover from surgery before testing.
After recovery from surgery, QEEG was measured Briefly, animals were placed into sound attenuating chambers during the light cycles of the rats diurnal cycle. Animals were allowed two hours to habituate to these environments. Thereafter, EEG was recorded continuously for ten minutes before and two hours after drug administration. Every other one-second sample of EEG was converted from the time to the frequency domain using a fast fourier transformation (FFT). […] Mean power within the 0 to 4 (delta), 5 to 8 (theta), 9 to 15 (alpha), 16 to 25 (beta) Hz bands was calculated separately for each bandwidth. Total power within all bandwidths also was calculated. […]
Data from each bandwidth and total power were analyzed separately using nonparametric ranked analysis of variance (Kruskals-Wallis rank transformed analysis with repeated measures). […]

[6] = system: awake unanesthetized rat; experiment: Heart rate in the awake unanesthetized rat; assay type: in vivo; conditions: increase = M1 response, decrease = M2 response
From the text: as §1

[7] = Oral availability and duration of action; conditions: in vivo

CCN1C(=O)OC[C@@H]1Cc1cncn1C [(S)-3-ethyl-4-[(1-methyl-1H-imidazol-5-yl)methyl]-2-oxazolidinone]
RQNB/RCMD (ratio of IC50 values, muscarinic antagonist/agonist binding) [1]: 214
selectivity for M1 receptors over M2 receptors ([2]; receptor binding): 3 fold
M1/M2 (RECEPTOR BINDING) ([2]; transformed cells with only M1 receptors vs heart tissue (M2)): 3.3
ED50 [3]: 1.6 mg/kg
ED50 [4]: 13.1 mg/kg
ELECTROENCEPHALOGRAPHY (ACTIVE DOSE RANGE, mg/kg, PO) [5]: 10-100 mg/kg
effect on heart rate [6]: increases (an M1 response) rather than decreases (an M2 response) heart rate
duration of action [7]: reasonable duration of action
oral availability ([7]; po): good oral availability
